Source: patent US12491190B2, “Bile acid derivative, composition and application thereof” (SHENZHEN YUNHE PHARMACEUTICAL TECHNOLOGY PARTNERSHIP …, priority 2019, dated 2025)

Tests used:
NCI-H716 and STC-1 cells = experiment: GLP-1 expression in enteroendocrine cell lines after 48 h bile acid treatment; assay type: cell-based; details: 50 μM, through the action of TGR5 and FXR, FIG. 6
Method: NCI-H716 and STC-1 cells were treated with 50 μM hyocholic acid, hyodeoxycholic acid, taurohyodeoxycholic acid, glycohyodeoxycholic acid, taurohyocholic acid, glycohyocholic acid and 19 kinds of other bile acids for 48 hours. […] (a) GLP-1 transcription was measured using real-time PCR, see FIG. 6A. (b) GLP-1 secretion was measured using ELISA, see FIG. 6B. (c) NCI-H716 and STC-1 and TGR5 knockdown cells thereof were treated with 6 kinds of hyocholic acids for 24 h and intracellular GLP-1, p-CREB and total CREB were measured using western blotting. (d) FXR protein concentration in nuclear and cytoplasmic fractions ofNCI-H716 cells after 24 h treatment with 50 μM chenodeoxycholic acid or 5-cholic acid in the presence and absence of hyocholic acid. See FIG. 6E. * P<0.05, compared with the control.

NCI-H716 cells = experiment: GLP-1 release into culture medium of NCI-H716 cells; assay type: cell-based; details: 50 μM, FIG. 5
Method: NCI-H716 cells were cultured and treated with 50 μM hyocholic acid and hyocholic acid derivatives, and a reported TGR5 agonist INT-777, and the levels of GLP-1 in the cell culture medium were measured.

[1] = tested on: fat-induced obesity mouse model; experiment: High-fat diet induced obesity mouse model, triglyceride after 8 weeks of gavage; assay type: in vivo, mice; details: for triglyceride levels versus simple high-fat diet group: 50 mg/kg/day by gavage with high-fat diet for 8 weeks; for liver triglyceride / serum triglyceride: after 8 weeks of intervention; for liver triglyceride: FIG. 2; for serum triglyceride: FIG. 3
Method: In the fat-induced obesity mouse model, hyocholic acid and hyodeoxycholic acid were administered by gavage at a dose of 50 mg/kg/day while feeding high-fat diet (HFD) for 8 weeks. […] The increase of hyocholic acid and hyodeoxycholic acid in mice can effectively improve the dyslipidemia in mice caused by high fat.

Compound	upregulating GLP-1 protein expression in enteroendocrine cell lines (NCI-H716 and STC-1 cells)	release of GLP-1 (level in cell culture medium) (NCI-H716 cells)	triglyceride levels versus simple high-fat diet group [1]	liver triglyceride [1]	serum triglyceride [1]
C[C@H](CCC(=O)NCCS(=O)(=O)[O-])[C@H]1CC[C@H]2[C@@H]3C[C@H](O)[C@@H]4C[C@H](O)CC[C@]4(C)[C@H]3CC[C@]12C.[Na+] [taurohyodeoxycholic acid]	more effective than other bile acids				
CC[C@H]1[C@@H](O)[C@@H]2[C@H](C[C@H](O)[C@]3(C)[C@@H]([C@H](C)C[C@H](C)C(=O)O)CC[C@@H]23)[C@@]2(C)CC[C@@H](O)C[C@@H]12 [INT-777]		effectively promote the release of GLP-1			
C[C@H](CCC(=O)O)[C@H]1CC[C@H]2[C@@H]3[C@H](O)[C@H](O)[C@@H]4C[C@H](O)CC[C@]4(C)[C@H]3CC[C@]12C [hyocholic acid]	more effective than other bile acids	effectively promote the release of GLP-1	significantly lower	significant decrease	significant decrease
C[C@H](CCC(=O)NCC(=O)O)[C@H]1CC[C@H]2[C@@H]3[C@H](O)[C@H](O)[C@@H]4C[C@H](O)CC[C@]4(C)[C@H]3CC[C@]12C [glycohyocholic acid]	more effective than other bile acids				
C[C@H](CCC(=O)O)[C@H]1CC[C@H]2[C@@H]3C[C@H](O)[C@@H]4C[C@H](O)CC[C@]4(C)[C@H]3CC[C@]12C [hyodeoxycholic acid]	more effective than other bile acids		significantly lower	significant decrease	significant decrease
C[C@H](C[C@H](C)C(=O)O)[C@H]1CCC2C3C(CC[C@@]21C)[C@@]1(C)CC[C@@H](O)CC1[C@@H](O)[C@H]3O (stereo partly drawn) [ZN-1-102-1, (S)-23-methyl hyocholic acid]		superior to hyocholic acid and the existing TGR5 agonist INT-777			
CC(CCC(=O)NCC(=O)O)C1CCC2C3CC(O)C4CC(O)CCC4(C)C3CCC12C (stereo not drawn) [glycohyodeoxycholic acid]	more effective than other bile acids				
C[C@H](CCC(=O)NCCS(=O)(=O)O)[C@H]1CC[C@H]2[C@@H]3[C@H](O)[C@H](O)[C@@H]4C[C@H](O)CC[C@]4(C)[C@H]3CC[C@]12C.[Na] [taurohyocholic acid]	more effective than other bile acids				
